Laboratory results: US7317014B2, “Bio-active pyrimidine molecules” (Orchid Research Laboratories, Ltd., priority 2002, dated 2008)

Experiments:
IL-6 = IL-6 production from LPS-stimulated human monocytes (ELISA); assay type: cell-based; settings: Monocyte; for inhibition at 1 µM: Conc. 1 μM; for inhibition at 10 µM: Conc. 10 μM
Procedure: Interleukin-6(IL-6) This assay determines the effect of test compounds on the production of IL-6 from human monocytes. Compounds are tested for their ability to downregulate the production of IL-6 in activated monocytes. Test compounds were incubated for three, six and twenty four hours with human monocytes. Lipopolysaccharide was used to stimulate the monocytes. The level of Interleukin-6 is quantitated using Enzyme-Linked Immunosorbent assay performed in a 96 well format.

NCI-H460 = assay: DTP human tumor cell line one-dose prescreen, NCI-H460; assay type: cell-based; settings: Concentration (100 μm), Lung NCI-H460, test/control (T/C)
Procedure: (§1) The current assay utilizes a 384 well plate format and fluorescent staining technologies resulting in greater screening capacity for testing of synthetic samples. Cell Lines The cell lines of the cancer screening panel are grown in RPMI 1640 medium containing 5% fetal bovine serum and 2 mM L-glutamine. For a typical screening experiment, cells are inoculated into 96 well microtiter plates in 100 μL. After cell inoculation, the microtiter plates are incubated at 37° C., 5% CO2, 95% air and 100% relative humidity for 24 h prior to addition of experimental drugs. The cells are plated a densities of 5000 cells/well (MCF7), 1000 cells/well (NCI-H460), and 7500 cells/well (SF-268) to allow for varying doubling time of the cell lines. Each plate contains all three cell lines, a series of dilutions of standard agents, total kill wells and appropriate controls. Plates are incubated under standard conditions for 24 hours prior to addition of experimental compounds or extracts. Addition of Experimental Agents (Pure Compounds) […] Two standard drugs, meaning that their activities against the cell lines are well documented, are tested against each cell line: NSC 19893 (5-FU) and NSC 123127 (Adriamycin). Endpoint Measurement After compound addition, plates are incubated at standard conditions for ?hours, 10 μl/well Alamar Blue is added and the plates are incubated for an additional 4 hours. Fluorescence is measured using an excitation wavelength of 530 nm and an emission wavelength of 590 nm. Calculation of Percent Test Cell Growth/Control (Untreated) Cell Growth (T/C) Calculation of Percent Test Cell Growth/Control (Untreated) Cell Growth (T/C) Percent growth is calculated on a plate-by-plate basis for test wells relative to control wells. Percent Growth is expressed as the ratio of fluorescence of the test well to the average fluorescence of the control wells ×100.

TNF-α = TNF-α production from LPS-stimulated human monocytes (ELISA); assay type: cell-based; settings: Monocyte
SF-268 = assay: DTP human tumor cell line one-dose prescreen, SF-268; assay type: cell-based; settings: Concentration (100 μm), CNS SF-268, test/control (T/C)
Procedure: as §1

MCF7 = assay: DTP human tumor cell line one-dose prescreen, MCF7; assay type: cell-based; settings: Concentration (100 μm), Breast MCF7, test/control (T/C)
Procedure: as §1

Male Wistar rats = assay: Rat carrageenan paw edema test; assay type: in vivo; settings: oral
COX-2 = biological target: T1, COX-2 (Homo sapiens, UniProt P35354); assay: Human whole blood assay, COX-2 inhibition (PGE2 after LPS); assay type: cell-based; settings: Conc. 0.1 μM, 24 h
T1 construct: incubation of human blood with lipopolysaccharide (LPS), which induces COX-2 production in the blood; endogenous in cells; host or cells: fresh human whole blood from male volunteers, LPS-stimulated, aspirin-pretreated
T1 sequence (P35354 18-604): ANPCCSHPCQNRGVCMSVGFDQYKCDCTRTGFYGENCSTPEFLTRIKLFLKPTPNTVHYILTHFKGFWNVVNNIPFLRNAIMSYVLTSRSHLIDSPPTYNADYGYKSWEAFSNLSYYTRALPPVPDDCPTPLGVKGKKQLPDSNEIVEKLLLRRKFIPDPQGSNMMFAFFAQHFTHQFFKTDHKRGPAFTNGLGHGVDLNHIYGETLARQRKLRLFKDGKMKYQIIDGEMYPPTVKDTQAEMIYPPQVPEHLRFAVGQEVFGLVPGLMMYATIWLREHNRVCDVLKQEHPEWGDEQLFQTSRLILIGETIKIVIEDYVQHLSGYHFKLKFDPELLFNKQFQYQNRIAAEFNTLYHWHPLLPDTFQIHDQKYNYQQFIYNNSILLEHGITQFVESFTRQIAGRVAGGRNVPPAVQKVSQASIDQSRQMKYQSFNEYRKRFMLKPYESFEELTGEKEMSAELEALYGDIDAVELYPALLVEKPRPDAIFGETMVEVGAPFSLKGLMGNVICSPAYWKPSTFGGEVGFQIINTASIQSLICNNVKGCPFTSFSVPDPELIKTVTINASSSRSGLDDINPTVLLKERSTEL
Procedure: The COX-2 inhibition activity of the compounds illustrated in the examples was determined by the following method. Human Whole Blood Assay Human whole blood provides a protein and cell rich milieu appropriate for the study of biochemical efficacy of anti-inflammatory compounds such as selective COX-2 inhibitors. […] This is correlating with the observation that COX-2 inhibitors have no effect on prostaglandin E2 (PGE2) production in normal blood. These inhibitors are active only after incubation of human blood with lipopolysaccharide (LPS), which induces COX-2 production in the blood. Method Fresh blood was collected in tubes containing potassium EDTA by vein puncture from male volunteers. The subjects should have no apparent inflammatory conditions and not taken NSAIDs for atleast 7 days prior to blood collection. Blood was treated with aspirin in vitro (10 μg/ml, at time zero) to inactivate COX-1, and then with LPS (10 μg/ml) along with test agents or vehicle. The blood was incubated for 24 h at 37° C., after which the tubes were centrifuged, the plasma was separated and stored at −80° C. (J. Pharmacol. Exp. Ther., 271, 1705, 1994; Proc. Natl. Acad. Sci. USA., 96, 7563, 1999). The plasma was assayed for PGE2 using Cayman ELISA kit as per the procedure outlined by the manufacturer (Cayman Chemicals, Ann Arbor, USA). The plasma was also tested for TNF-α, IL-1β, and IL-6 using appropriate human ELISA kit as per the procedure of manufacturer (Cayman Chemicals, Ann Arbor, USA).

Structure (SMILES): Cc1ccc(-c2nc(Cl)nc(Cl)c2-c2ccc(Cl)cc2)cc1
- melting point: 223 to 225 °C

Structure (SMILES): [N-]=[N+]=Nc1nc(C(F)(F)F)nc(-c2ccccc2)c1-c1ccccc1
- melting point: 126 to 128 °C

Structure (SMILES): CS(=O)(=O)c1ccc(-c2nc(C(F)(F)F)nc(N=[N+]=[N-])c2-c2ccccc2)cc1
- melting point: 172 to 175 °C

Structure (SMILES): CS(=O)(=O)c1ccc(-c2nc(C(F)(F)F)nc(N=[N+]=[N-])c2-c2ccc(Cl)cc2)cc1
- melting point: 317 to 320 °C

Structure (SMILES): CS(=O)(=O)c1ccc(-c2nc(C(F)(F)F)nc(N=[N+]=[N-])c2-c2ccc(F)cc2)cc1
- melting point: 285 to 288 °C

Structure (SMILES): NNc1nc(C(F)(F)F)nc(-c2ccc(F)cc2)c1-c1ccccc1
- melting point: 175 to 177 °C

Structure (SMILES): CS(=O)(=O)c1ccc(-c2nc(C(F)(F)F)nc(NN)c2-c2ccc(Cl)cc2)cc1
- melting point: 266 to 269 °C

Structure (SMILES): CS(=O)(=O)c1ccc(-c2nc(C(F)(F)F)nc(NN)c2-c2ccc(F)cc2)cc1
- melting point: 286 to 290 °C

Structure (SMILES): CSc1ccc(-c2c(NN)nc(Cl)nc2-c2ccccc2)cc1
- melting point: 272 to 274 °C

Structure (SMILES): Fc1ccc(-c2nc(C(F)(F)F)nc(Cl)c2-c2ccccc2)cc1
- melting point: 67 to 68 °C

Structure (SMILES): CSc1ccc(-c2c(NN)nc(NN)nc2-c2ccccc2)cc1
- melting point: 207 to 210 °C

Structure (SMILES): CC(=O)NNc1nc(C(F)(F)F)nc(-c2ccccc2)c1-c1ccccc1
- melting point: 113 to 116 °C

Structure (SMILES): CC(=O)NNc1nc(C(F)(F)F)nc(-c2ccc(F)cc2)c1-c1ccccc1
- melting point: 149 to 153 °C

Structure (SMILES): CC(=O)NNc1nc(C(F)(F)F)nc(-c2ccc(S(C)(=O)=O)cc2)c1-c1ccccc1
- melting point: 265 to 268 °C

Structure (SMILES): CC(=O)NNc1nc(C(F)(F)F)nc(-c2ccc(S(C)(=O)=O)cc2)c1-c1ccc(Cl)cc1
- melting point: 254 to 256 °C

Structure (SMILES): CS(=O)(=O)c1ccc(-c2nc(C(F)(F)F)nc(NNC(=O)C(F)(F)F)c2-c2ccc(Cl)cc2)cc1
- melting point: 307 to 309 °C

Structure (SMILES): O=c1nc(Cl)cc(-c2ccccc2)n1-c1ccccc1
- melting point: 141 to 143 °C

Structure (SMILES): FC(F)(F)c1nc(Cl)c(-c2ccccc2)c(-c2ccccc2)n1 [Example 1, 4-chloro-5,6-diphenyl-2-(trifluoromethyl)pyrimidine]
- melting point: 105 to 107 °C
- inhibition at 1 µM (IL-6): 62.5%

Structure (SMILES): Cc1ccc(-c2nc(C(F)(F)F)nc(Cl)c2-c2ccccc2)cc1 [Example 2, 4-chloro-6-(4-methylphenyl)-5-phenyl-2-(trifluoromethyl)pyrimidine]
- melting point: 97 to 100 °C
- inhibition at 1 µM (IL-6): 62.3%

Structure (SMILES): CS(=O)(=O)c1ccc(-c2nc(C(F)(F)F)nc(Cl)c2-c2ccccc2)cc1 [Example 4, 4-chloro-6-[4-(methylsulfonyl)phenyl]-5-phenyl-2-(trifluoromethyl)pyrimidine]
- Percentage Growth Lung NCI-H460 (NCI-H460): 0
- inhibition at 10 µM (TNF-α; Conc. 10 μM): 55.4%
- melting point: 156 to 159 °C
- Percentage Growth CNS SF-268 (SF-268): 3
- Percentage Growth Breast MCF7 (MCF7): 0

Structure (SMILES): Clc1nc(Cl)c(-c2ccccc2)c(-c2ccccc2)n1 [Example 7, 2,4-dichloro-5,6-diphenylpyrimidine]
- Rat Paw Edema model % Inhibition (10 mg/kg body weight) (Male Wistar rats): 60.9%
- melting point: 144 to 146 °C

Structure (SMILES): Cc1ccc(-c2nc(Cl)nc(Cl)c2-c2ccccc2)cc1 [Example 8, 2,4-dichloro-6-(4-methylphenyl)-5-phenylpyrimidine]
- Percentage Growth Lung NCI-H460 (NCI-H460): 1
- melting point: 130 to 132 °C
- Percentage Growth CNS SF-268 (SF-268): 6
- Percentage Growth Breast MCF7 (MCF7): 5

Structure (SMILES): Clc1ccc(-c2nc(Cl)nc(Cl)c2-c2ccccc2)cc1 [Example 9, 6-(4-chlorophenyl)-2,4-dichloro-5-phenylpyrimidine]
- Percentage Growth Lung NCI-H460 (NCI-H460): 0
- Rat Paw Edema model % Inhibition (10 mg/kg body weight) (Male Wistar rats): 42.8%
- melting point: 129 to 131 °C
- Percentage Growth CNS SF-268 (SF-268): 1
- inhibition at 0.1 µM (COX-2): 60.5%
- Percentage Growth Breast MCF7 (MCF7): 1

Structure (SMILES): Clc1ccc(-c2c(Cl)nc(Cl)nc2-c2ccccc2)cc1 [Example 10, 5-(4-chlorophenyl)-2,4-dichloro-6-phenylpyrimidine]
- Percentage Growth Lung NCI-H460 (NCI-H460): 0
- melting point: 123 to 125 °C
- Percentage Growth CNS SF-268 (SF-268): 0
- Percentage Growth Breast MCF7 (MCF7): 0

Structure (SMILES): COc1ccc(-c2c(Cl)nc(Cl)nc2-c2ccccc2)cc1 [Example 11, 2,4-dichloro-5-(4-methoxyphenyl)-6-phenylpyrimidine]
- Percentage Growth Lung NCI-H460 (NCI-H460): 0
- inhibition at 1 µM (TNF-α; Conc. 1 μM): 29.2%
- melting point: 132 to 134 °C
- Percentage Growth CNS SF-268 (SF-268): 2
- Percentage Growth Breast MCF7 (MCF7): 5

Structure (SMILES): CSc1ccc(-c2c(Cl)nc(Cl)nc2-c2ccccc2)cc1 [Example 12, 2,4-dichloro-5-[4-(methylthio)phenyl]-6-phenylpyrimidine]
- Percentage Growth Lung NCI-H460 (NCI-H460): 0
- melting point: 88 to 90 °C
- Percentage Growth CNS SF-268 (SF-268): 4
- Percentage Growth Breast MCF7 (MCF7): −1

Structure (SMILES): CSc1ccc(-c2c(Cl)nc(Cl)nc2-c2ccc(Cl)cc2)cc1 [Example 13, 2,4-dichloro-6-(4-chlorophenyl)-5-[4-(methylthio)phenyl]pyrimidine]
- Rat Paw Edema model % Inhibition (10 mg/kg body weight) (Male Wistar rats): 47.8%
- melting point: 144 to 146 °C
- inhibition at 0.1 µM (COX-2): 45.7%

Structure (SMILES): NNc1nc(C(F)(F)F)nc(-c2ccccc2)c1-c1ccccc1 [Example 21, 4-hydrazino-5,6-diphenyl-2-(trifluoromethyl)pyrimidine]
- melting point: 182 to 186 °C
- inhibition at 1 µM (IL-6): 67.5%

Structure (SMILES): Cc1ccc(-c2nc(C(F)(F)F)nc(NN)c2-c2ccccc2)cc1 [Example 22, 4-hydrazino-6-(4-methylphenyl)-5-phenyl-2-(trifluoromethyl)pyrimidine]
- melting point: 188 to 191 °C
- inhibition at 1 µM (IL-6): 52.3%

Structure (SMILES): CS(=O)(=O)c1ccc(-c2nc(C(F)(F)F)nc(NN)c2-c2ccccc2)cc1 [Example 24, 4-hydrazino-6-[4-(methylsulfonyl)phenyl]-5-phenyl-2-(trifluoromethyl)pyrimidine]
- melting point: 272 to 275 °C
- inhibition at 10 µM (IL-6): 66%

Structure (SMILES): CC(=O)NNc1nc(C(F)(F)F)nc(-c2ccc(C)cc2)c1-c1ccccc1 [Example 32, N′-[6-(4-methylphenyl)-5-phenyl-2-(trifluoromethyl)pyrimidin-4-yl]acetohydrazide]
- melting point: 147 to 152 °C
- inhibition at 10 µM (IL-6): 53.3%
